Data as given in paper PMC8072281 (Frontiers in Immunology, 2021).

Tests used:
H-2K^b monomers = H-2K^b monomers (Mus musculus, UniProt P01901); format: binding
H-2K^b on RMA/S cells = format: cell-based, murine
[1] = system: PPRV-peptide specific CD8+ T cells; design: species or system mouse (WT C57BL/6); details: mouse, in vivo
[2] = system: peptide specific CD8+ T cells; design: species or system mouse (C57BL/6); details: mouse, in vivo

H-2K^b monomers, sequence (P01901 whole entry, looked up): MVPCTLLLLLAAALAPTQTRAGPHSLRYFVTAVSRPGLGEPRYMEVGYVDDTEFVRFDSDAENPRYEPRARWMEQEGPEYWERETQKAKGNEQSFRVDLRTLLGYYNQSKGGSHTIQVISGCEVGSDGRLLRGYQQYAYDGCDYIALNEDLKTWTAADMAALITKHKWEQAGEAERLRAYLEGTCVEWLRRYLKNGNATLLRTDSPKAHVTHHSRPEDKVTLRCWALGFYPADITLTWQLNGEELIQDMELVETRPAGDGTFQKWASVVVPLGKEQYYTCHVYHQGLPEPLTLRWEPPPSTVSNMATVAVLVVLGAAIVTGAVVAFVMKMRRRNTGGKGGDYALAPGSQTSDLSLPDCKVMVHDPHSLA

| Sequence | fold change values of H-2K^b monomer stabilization vs control peptide SIINFEKL (H-2K^b monomers) | stabilization of surface H-2K^b (H-2K^b on RMA/S cells) | tetramer positive CD8+ T cells, frequencies and numbers vs control [1] | magnitude of tetramer positive CD8+ T cells [2] |
| --- | --- | --- | --- | --- |
| IGLVRDFGL | higher values as compared to other peptides | greater levels than the other peptides | significantly higher frequencies and numbers | higher |
| IVVRRTAGV | higher values as compared to other peptides | – | – | – |
| IEHIFESPL | higher values as compared to other peptides | – | – | – |
| VAFNILVTL | higher values as compared to other peptides | – | – | – |
| FMYLFLLGV | – | greater levels than the other peptides | not significantly different from the control animals | – |
| VILDRERLV | higher values as compared to other peptides | – | – | – |
| SSITTRSRL | higher values as compared to other peptides | – | – | – |
| FSAGAYPLL | higher values as compared to other peptides | greater levels than the other peptides | significantly higher frequencies and numbers | higher |
